{"source": "patent US7597904B2", "about": "“Metalloproteinase inhibitory agent” (Nestec S.A., priority 2004, dated 2009)", "key": {"HT-29 cells [1]": {"test_system": "HT-29 cells", "test": "Lactate dehydrogenase cytotoxicity test", "assay_type": "cell-based, human", "details": "Table 4; HT-29, LDH released, 24 hours incubation", "description": "Lactate Dehydrogenase Cytotoxicity Test\nCell viability was rigorously measured according the manufacturer's recommendations (Roche Diagnostics). The test is based on the measurement of lactate dehydrogenase (LDH) activity released from the cytosol of damaged cells in the supernatant.\nMost current assays for measuring cytotoxicity are based on alterations of plasma membrane permeability and the consequent release of cytoplasmic enzymes or the uptake of dyes, normally excluded by viable cells. We here chose to measure the lactate dehydrogenase (LDH) activity released from damaged cells."}, "HT-29 cells [2]": {"test_system": "HT-29 cells", "test": "Proliferation assay of HT-29 cells with caseinate hydrolysates and fractions (neutral red, OD 540 nm)", "assay_type": "cell-based, human", "method": "Culture of Human Intestinal Epithelial Cells (IECs) and Proliferation Assay\n• Human colonic adenocarcinoma cell line HT29 (ATCC: HTB-38) from the American Type Culture Collection (ATCC, Manassas, Va.). • DMEM, high glucose (4.5 g/l), with stable glutamine (BioConcept, AMIMED, Allschwil, Switzerland)\nUndifferentiated cells (passages 45-78) were maintained in glucose-containing DMEM supplemented with 10% FCS at 37° C. in a 5% CO2/air incubator. Culture medium was changed every two days until the cell monolayers reached 50% confluence. For stimulation assays, HT-29 cells were plated at 1.2*10^4 cells/well in 96-well flat-bottom plates. After incubation for 4 days, the amount of cells present in the wells before incubation with the samples was assessed adding neutral red solution in 4 wells and incubating the plate for 45 min. The HT-29 cells were then washed twice with serum-free media (inclusive the wells with neutral red solution). The wells colored with neutral red remained from now on free of any media.\nHT-29 cells were then incubated 24 hours respectively in the presence of 80 μg (hydrolysed) sodium caseinate samples in 200 μl DMEM, in 200 μl serum-free medium (blank), in 200 μl medium with serum (positive control) or in 0.9% saline solution (negative control). […] The dye was finally extracted with 100 μl of an extraction solution and the optical density measured at 540 nm. The optical density measured correlates with the number of cells present in the wells.\nThe proliferation was calculated by the difference in absorbance between the cells having been incubated 24 hours with sodium caseinate samples, with serum-free medium, with medium containing serum or with 0.9% saline solution and the cells before incubation.\nThe difference in absorbance ΔA540 from the blank (cells incubated with serum-free medium) was normalized. The results were then expressed as percentage with respect to the blank. • Culture medium with serum: DMEM was supplemented with 10% decomplemented FCS and 1% Penicillin-Streptomycin. […]"}}, "data": [{"substance": "sodium caseinate", "values": [{"measurement": "cytotoxic potential, percentage of OD at 490 nm with respect to the control (lysate); row head % prolif", "setting": "HT-29 cells [1]", "value": "9 +/− 3%"}, {"measurement": "antiproliferative activity (in words)", "setting": "HT-29 cells [2]; HT-29 cells", "value": "no activity"}, {"measurement": "% prolif (percentage of OD at 540 nm with respect to the control (−serum))", "setting": "HT-29 cells [2]; Table 2, HT-29, 24 hours incubation, 80 μg sample in 200 μl DMEM", "value": "93 +/− 12%"}, {"measurement": "% prolif (percentage of OD at 540 nm with respect to the control (−serum))", "setting": "HT-29 cells [2]; Table 3, HT-29, active fraction with or without heat / enzyme treatment (alcalase, proteinase A)", "value": "93 +/− 7%"}]}]}
